Test results: patent US20260223850A1, “SUBSTITUTED PYRROLIDONE COMPOUND, PREPARATION METHOD THEREFOR, COMPOSITION AND APPLICATION THEREOF” (QINGDAO KINGAGROOT CHEMICAL COMPOUND CO., LTD., priority 2023, published 2026)

Key:
Type in all cases: in vivo
[1] = tested on: Echinochloa crusgalli; assay: Seedling stage sealing experiment for water-seeding; conditions: 120 g a.i./ha, 15 days, fresh weight control rate
Text: (§1) The activity level criteria for plant damage (i.e., growth control rate) are as follows: • Level 9: completely dead; • Level 8: growth control rate greater than or equal to 90% and less than 100%; • Level 7: growth control rate greater than or equal to 80% and less than 90%; • Level 6: growth control rate greater than or equal to 70% and less than 80%; • Level 5: growth control rate greater than or equal to 50% and less than 70%; • Level 4: growth control rate greater than or equal to 30% and less than 50%; • Level 3: growth control rate greater than or equal to 20% and less than 30%; • Level 2: growth control rate greater than or equal to 10% and less than 20%; • Level 1: growth control rate less than 10%; • Level 0: no effect.
(§2) The above growth control rates are fresh weight control rates.
(§3) Echinochloa phyllopogon, Digitaria sanguinalis, Huaidao (rice cultivar), etc. were broadcasted on the surface of nutrition bowls filled with soil and fully covered by soil. The foregoing well-prepared nutrition bowls were then placed in a cultivation box with water filled to a suitable height to keep the soil in the nutrition bowls moist. A test compound of the present invention was individually dissolved with acetone, then diluted into solution of a certain concentration using a certain amount of water, and sprayed using a spray tower. The plants were placed on a greenhouse seedbed and cultured for 15 days, and the experimental results were then collected. The compound was applied at 120, 60, 30 and 15 g a.i./ha in triplicate, and the results were averaged.

[2] = tested on: Echinochloa phyllopogon; assay: as above; conditions: 120 g a.i./ha, 15 days, fresh weight control rate
Text: as §1, §2, §3

[3] = tested on: Huaidao (rice cultivar); assay: Seedling stage sealing experiment for water-seeding (crop safety); conditions: 120 g a.i./ha, seedling stage sealing, 15 days, fresh weight control rate
Text: as §1, §2, §3

[4] = spray, seedling stage sealing for water-seeding

| Structure (SMILES) | Echinochloa crusgalli activity level (growth control rate) ([1]; seedling stage sealing) | Echinochloa phyllopogon activity level (growth control rate) ([2]; seedling stage sealing) | Huaidao (rice cultivar) plant damage level [3] | Echinochloa crusgalli activity level (growth control rate) [1, 4] | Echinochloa phyllopogon activity level (growth control rate) [2, 4] |
| --- | --- | --- | --- | --- | --- |
| CN1C[C@H](c2cccc(C(F)(F)F)c2)[C@@H](C(=O)Nc2cnn(C)c2Cl)C1=O [1′] | 9 | 6 (Level 6: growth control rate greater than or equal to 70% and less than 80%) | – | – | – |
| CN1C[C@H](c2cccc(Oc3ccc(F)cn3)c2)[C@@H](C(=O)Nc2cnn(C)c2Cl)C1=O [52′] | 9 | – | 0 | – | – |
| CCn1ncc(NC(=O)[C@H]2C(=O)N(C)C[C@@H]2c2cccc(C(F)(F)F)c2)c1Cl [95′] | 9 | 8 (Level 8: growth control rate greater than or equal to 90% and less than 100%) | – | – | – |
| Cc1ccccc1[C@H]1CN(C)C(=O)[C@@H]1C(=O)Nc1cnn(C)c1Cl [124′] | 6 (Level 6: growth control rate greater than or equal to 70% and less than 80%) | – | – | – | – |
| C=C(C)c1cccc([C@H]2CN(C)C(=O)[C@@H]2C(=O)Nc2cnn(C)c2Cl)c1 [150′] | 6 (Level 6: growth control rate greater than or equal to 70% and less than 80%) | – | 0 | – | – |
| CN1C[C@H](c2cccc(C(F)(F)F)c2)[C@@H](C(=O)Nc2cnn(C)c2N)C1=O [198′] | 5 (Level 5: growth control rate greater than or equal to 50% and less than 70%) | – | – | – | – |
| CO/N=C/c1cccc([C@H]2CN(C)C(=O)[C@@H]2C(=O)Nc2cnn(C)c2Cl)c1 [232′] | 6 (Level 6: growth control rate greater than or equal to 70% and less than 80%) | – | – | – | – |
| CC(C)c1ccc([C@H]2CN(C)C(=O)[C@@H]2C(=O)Nc2cnn(C)c2Cl)cc1 [245′] | – | 5 (Level 5: growth control rate greater than or equal to 50% and less than 70%) | – | – | – |
| COCc1ccc([C@H]2CN(C)C(=O)[C@@H]2C(=O)Nc2cnn(C)c2Cl)cc1 [253′] | 6 (Level 6: growth control rate greater than or equal to 70% and less than 80%) | – | – | – | – |
| Cc1cc(C)cc([C@H]2CN(C)C(=O)[C@@H]2C(=O)Nc2cnn(C(C)(C)C)c2Cl)c1 [267′] | 6 (Level 6: growth control rate greater than or equal to 70% and less than 80%) | – | 0 | – | – |
| Cc1cc(C)cc([C@H]2CN(C)C(=O)[C@@H]2C(=O)Nc2cnn(C)c2)c1 [274′] | 7 (Level 7: growth control rate greater than or equal to 80% and less than 90%) | – | 0 | – | – |
| Cc1cc(C)cc([C@H]2CN(C)C(=O)[C@@H]2C(=O)Nc2cnn(C(C)C)c2C2CC2)c1 [278′] | 6 (Level 6: growth control rate greater than or equal to 70% and less than 80%) | – | 0 | – | – |
| Cc1cc(C)cc([C@H]2CN(C)C(=O)[C@@H]2C(=O)Nc2cnn(C)c2C2=CCCC2)c1 [280′] | 6 (Level 6: growth control rate greater than or equal to 70% and less than 80%) | – | 0 | – | – |
| CN1C[C@H](c2ccc(C(F)(F)F)c(F)c2Cl)[C@@H](C(=O)Nc2cnn(C)c2Cl)C1=O [329′] | 7 (Level 7: growth control rate greater than or equal to 80% and less than 90%) | 6 (Level 6: growth control rate greater than or equal to 70% and less than 80%) | – | – | – |
| Cc1ccc([C@H]2CN(C)C(=O)[C@@H]2C(=O)Nc2cnn(C)c2Cl)s1 [335′] | 7 (Level 7: growth control rate greater than or equal to 80% and less than 90%) | – | – | – | – |
| CN1C[C@H](c2cccc(Oc3ccccn3)c2)[C@@H](C(=O)Nc2cnn(C)c2Cl)C1=O [360′] | 7 (Level 7: growth control rate greater than or equal to 80% and less than 90%) | – | – | – | – |
| CSc1c(NC(=O)[C@H]2C(=O)N(C)C[C@@H]2c2cccc(C)c2)cnn1C [393′] | 9 | 9 | – | – | – |
| Cc1cccc([C@H]2CN(C)C(=O)[C@@H]2C(=O)Nc2cnn(C(F)F)c2C2CC2)c1 [395′] | 9 | 9 | – | – | – |
| CCc1c(NC(=O)[C@H]2C(=O)N(C)C[C@@H]2c2cccc(C(F)(F)F)c2)cnn1C(F)F [403′] | 9 | 9 | – | – | – |
| CN1C[C@H](c2cccc(C(F)(F)F)c2)[C@@H](C(=O)Nc2cnn(C)c2C(F)(F)F)C1=O [404′] | 9 | 9 | – | – | – |

| Structure (SMILES) | Echinochloa crusgalli activity level (growth control rate) ([1]; seedling stage sealing) | Echinochloa phyllopogon activity level (growth control rate) ([2]; seedling stage sealing) | Huaidao (rice cultivar) plant damage level [3] | Echinochloa crusgalli activity level (growth control rate) [1, 4] | Echinochloa phyllopogon activity level (growth control rate) [2, 4] |
| --- | --- | --- | --- | --- | --- |
| CN1C[C@H](c2cccc(OC(F)(F)F)c2)[C@@H](C(=O)Nc2cnn(C(F)F)c2Cl)C1=O [414′] | 9 | 9 | – | – | – |
| Cc1ccc([C@H]2CN(C)C(=O)[C@@H]2C(=O)Nc2cnn(C)c2C)cc1 [415′] | 9 | 9 | – | – | – |
| Cc1cc(C)cc([C@H]2CN(C)C(=O)[C@@H]2C(=O)Nc2cnn(C(F)F)c2C2CC2)c1 [429′] | 9 | 9 | – | – | – |
| CSc1c(NC(=O)[C@H]2C(=O)N(C)C[C@@H]2c2cc(C)cc(C)c2)cnn1C [431′] | 9 | 9 | – | – | – |
| Cc1cc(C)cc([C@H]2CN(C)C(=O)[C@@H]2C(=O)Nc2cnn(C)c2C#N)c1 [434′] | 9 | 9 | – | – | – |
| Cc1ccc([C@H]2CN(C)C(=O)[C@@H]2C(=O)Nc2cnn(C(F)F)c2Cl)cc1F [444′] | – | – | – | 9 | 9 |
| Cc1cc(C)cc([C@H]2CN(C)C(=S)[C@@H]2C(=S)Nc2cnn(C)c2Cl)c1 [451′] | – | – | – | 8 (Level 8: growth control rate greater than or equal to 90% and less than 100%) | 7 (Level 7: growth control rate greater than or equal to 80% and less than 90%) |
| CCc1c(NC(=O)[C@H]2C(=O)N(C)C[C@@H]2c2cccc(C)c2)cnn1C(F)F [466′] | – | – | – | 9 | 9 |
| CSc1c(NC(=O)[C@H]2C(=O)N(C)C[C@@H]2c2cccc(C(F)(F)F)c2)cnn1C [479′] | – | – | – | 9 | 9 |
| Cc1cc([C@H]2CN(C)C(=O)[C@@H]2C(=O)Nc2cnn(C(F)F)c2Cl)cc(C)c1C [515′] | – | – | – | 9 | 9 |
| C=C(C)c1ccc(C2CN(C)C(=O)C2C(=O)Nc2cnn(C)c2Cl)cc1 (stereo not drawn) [Compound 252] | 7 (Level 7: growth control rate greater than or equal to 80% and less than 90%) | 9 | – | – | – |
| CN1CC(c2ccc(OC(F)(F)F)cc2)C(C(=O)Nc2cnn(C)c2Cl)C1=O (stereo not drawn) [Compound 254] | 5 (Level 5: growth control rate greater than or equal to 50% and less than 70%) | 5 (Level 5: growth control rate greater than or equal to 50% and less than 70%) | – | – | – |
| CN1CC(c2ccc(-c3cccc(C(F)(F)F)c3)cc2)C(C(=O)Nc2cnn(C)c2Cl)C1=O (stereo not drawn) [Compound 261] | 6 (Level 6: growth control rate greater than or equal to 70% and less than 80%) | 5 (Level 5: growth control rate greater than or equal to 50% and less than 70%) | – | – | – |
| COc1cc(OC)cc(C2CN(C)C(=O)C2C(=O)Nc2cnn(C)c2Cl)c1 (stereo not drawn) [Compound 302] | 6 (Level 6: growth control rate greater than or equal to 70% and less than 80%) | 5 (Level 5: growth control rate greater than or equal to 50% and less than 70%) | – | – | – |
| CSc1c(C(F)(F)F)ccc(C2CN(C)C(=O)C2C(=O)Nc2cnn(C)c2Cl)c1Cl (stereo not drawn) [Compound 330] | 6 (Level 6: growth control rate greater than or equal to 70% and less than 80%) | 5 (Level 5: growth control rate greater than or equal to 50% and less than 70%) | – | – | – |
| CN1CC(c2cc(F)cc(F)c2F)C(C(=O)Nc2cnn(C)c2Cl)C1=O (stereo not drawn) [Compound 332] | 5 (Level 5: growth control rate greater than or equal to 50% and less than 70%) | – | – | – | – |
| CN1CC(c2ccc3occc3c2)C(C(=O)Nc2cnn(C)c2Cl)C1=O (stereo not drawn) [Compound 355] | 5 (Level 5: growth control rate greater than or equal to 50% and less than 70%) | – | – | – | – |
| Cc1ccc(C2CN(C)C(=O)C2C(=O)Nc2cnn(C)c2C(F)(F)F)cc1C (stereo not drawn) [Compound 488] | – | – | – | 9 | 9 |
| CN1CC(c2cc(F)cc(C(F)(F)F)c2)C(C(=O)Nc2cnn(C)c2C(F)(F)F)C1=O (stereo not drawn) [Compound 508] | – | – | – | 9 | 9 |
